According to US10654866B2, “Selective estrogen receptor degraders” (Eli Lilly and Company, priority 2018, dated 2020):
Like-named read-outs stand apart in the source and are kept apart here.

Experiments:
[1] = molecular target: ERα (Homo sapiens (Human), UniProt P03372); experiment: PRα induction assay in MCF7 cells; assay type: cell-based; details: MCF7 breast cancer cells
Procedure: The purpose of the following PRα induction assay is to determine whether a test compound has agonistic activity against ERα receptor (an agonist would be expected to activate the receptor).
Culture MCF7 (purchased from ATCC HTB-22) in DMEM media supplemented with 10% FBS, 0.01 mg/mL human insulin 1 and 1% penicillin/streptomycin antibiotics and plate the cells (prior to becoming 70% confluent) in 384-well flat-bottom plates at a density of 4,000 cells per well in 20 μL volume in DMEM phenol red free media containing 10% FBS (charcoal stripped). Incubate the cells overnight in a cell culture incubator (5% CO2, 95% relative humidity at 37° C.) and allow the cells to attach to the plate. The following day, dose the cells with test compound. Use an Echo 555 acoustic dispenser to prepare compound serial dilutions (1:3) in a range from 6 μM to 0.0003 μM. Dose the cells with the addition of the test compound (5 μL) from the serial dilution plate to the cell plate producing a final DMSO concentration of 0.2% with a final concentration of the test compound dose range between 2 and 0.0001 μM. For the maximum point use media containing 0.2% of DMSO and for the minimum point, use fulvestrant diluted at 2 μM final concentrations in the growth media containing 0.2% DMSO. After dosing with the test compound, incubate the cell plates at 37° C. and 5% CO2 for 24 hours. Fix the cells by adding 14% para-formaldehyde (10 μL) for 30 minutes at room temperature. Wash cells once with PBS (20 μL) and incubate with PBS (20 μL) containing 0.5% (v/v) TWEEN® 20 for 1 hour. Wash cells twice with PBS (20 μL) containing 0.05% TWEEN® 20 and block with 3% BSA in PBS containing 0.05% TWEEN® 20 and 0.1% TRITON™ X-100 (20 μL/well) for 1 hour at room temperature. […]
The following day, wash cells with PBS 0.05% TWEEN® 20 (2×20 μL) and incubate with secondary antibody (20 μL/well) (1:1000 dilution, Goat anti-rabbit IgM ALEXA FLUOR™ 488) in PBS 1% BSA for 105 minutes at room temperature. […] Scan plates with ACUMEN EXPLORER™ [Laser-scanning fluorescence microplate cytometer manufactured by TTP LABTECH LTD] to measure PRα. […]

[2] = tested on: MCF7 ESR1 Y537N mutant cells; experiment: Cell proliferation assay in MCF7-ESR1 Y537N-682; assay type: cell-based, human; details: seven days, read-out: Relative IC50 (μM) MCF7 ESR1 Y537N mutant cells
Procedure: (§1) Seed MCF7 (purchased from ATCC HTB-22) cells at a density of 2,000 cells per well in DMEM phenol red free media 10% FBS (20 μL volume) (charcoal stripped) into a clear bottom 384-well cell culture plate. Plate MCF7-ESRY537N-682 (generated by CRISPR/Cas9 gene editing of ESr1 gene in MCF7 cells, clone #682) in DMEM media supplemented with 10% FBS, and 1% penicillin/streptomycin antibiotics at a density of 1000 cells per well. Incubate the plates at 37° C. and 5% CO2. The following day dose the cells with the test compound. Use an Echo 555 acoustic dispenser to prepare test compound serial dilutions (1:3) in a range from 60 μM to 0.003 μM. Dose the cells with the addition of 5 μL from the serial dilution plate to the cell plate, producing a final DMSO concentration of 0.2% with a final test compound concentration dose range between 20 and 0.001 μM. For the maximum point use media containing 0.2% of DMSO and for the minimum point use fulvestrant diluted at 2 μM final concentrations in the growth media containing 0.2% DMSO. After dosing with the test compound, incubate the cell plates at 37° C. and 5% CO2. Seven days after test compound addition, remove the plates from the incubator and add cold EtOH 96% (65 μL) to each well. […] Seal the plates and incubate 1 hour at room temperature on the bench (preserved from light). Scan the plates with ACUMEN EXPLORER™ [Laser-scanning fluorescence microplate cytometer manufactured by TTP LABTECH LTD].

[3] = tested on: MCF7 ESR1 wild type; experiment: Cell proliferation assay in MCF7; assay type: cell-based, human; details: seven days, read-out: Relative IC50 (μM) MCF7 ESR1 wild type
Procedure: as §1

[4] = tested on: MCF7 ER-positive breast cancer model; experiment: In vivo combination studies in MCF7 ER-positive breast cancer xenograft model; design: species or system mice; details: Example 10 15 mpk; for Difference (Treatment 1 − Treatment 2): Treatment 1 = Vehicle, log10 tumor volume, QD × 42, PO
Source text: Otherwise, the statistical conclusion is additive.

Chain of ERα (P03372 whole entry): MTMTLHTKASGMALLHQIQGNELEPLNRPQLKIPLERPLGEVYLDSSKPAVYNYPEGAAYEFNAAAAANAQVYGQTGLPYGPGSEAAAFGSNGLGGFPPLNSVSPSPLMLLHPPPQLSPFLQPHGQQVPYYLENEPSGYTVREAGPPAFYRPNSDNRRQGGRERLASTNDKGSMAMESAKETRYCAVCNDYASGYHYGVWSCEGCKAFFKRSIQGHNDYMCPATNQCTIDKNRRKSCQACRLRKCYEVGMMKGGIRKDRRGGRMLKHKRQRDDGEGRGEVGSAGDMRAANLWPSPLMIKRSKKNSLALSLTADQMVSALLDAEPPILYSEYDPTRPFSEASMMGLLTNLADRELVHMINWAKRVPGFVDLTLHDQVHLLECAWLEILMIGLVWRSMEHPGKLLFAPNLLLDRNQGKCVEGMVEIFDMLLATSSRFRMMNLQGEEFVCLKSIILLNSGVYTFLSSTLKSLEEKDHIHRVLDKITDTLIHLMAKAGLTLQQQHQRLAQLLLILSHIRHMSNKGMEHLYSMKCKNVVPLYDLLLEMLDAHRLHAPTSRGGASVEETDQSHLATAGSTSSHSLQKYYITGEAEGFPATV

Row | SMILES | agonistic activity [1] | IC50 [2] | IC50 [3] | Delta T/C % or % Regression ([4]; Abemaciclib 50 mpk, QD × 42, PO (Table 20)) | Delta T/C % or % Regression ([4]; Everolimus 5 mpk, QD × 42, PO (Table 24)) | Delta T/C % or % Regression ([4]; alpelisib 15 mpk (d1-d7), 10 mpk (d8-42), QD × 42, PO (Table 22)) | Difference (Treatment 1 − Treatment 2) ([4]; Abemaciclib 50 mpk) | Difference (Treatment 1 − Treatment 2) ([4]; Everolimus 5 mpk) | Difference (Treatment 1 − Treatment 2) ([4]; alpelisib 15 mpk (d1-d7), 10 mpk (d8-42)) | IC50 ([2]; Homo sapiens, MCF7, […]) | IC50 ([3]; Homo sapiens, MCF7, […])
1 | Oc1ccc2c3c(cnc2c1)-c1ccc(C(F)(F)F)cc1OC3c1ccc(OCCN2CC(CF)C2)cc1 (single isomer, unassigned) [Example 1A, 5-(4-{2-[3-(Fluoromethyl)azetidin-1-yl]ethoxy}phenyl)-8-(trifluoromethyl)-5H-[1]benzopyrano[4,3-c]quinolin-2-ol] | no significant agonistic activity | 1.86 ± 1.03 µM | – | – | – | – | – | – | – | – | –
2 | Cc1ccc(S(=O)(=O)O)cc1.Oc1ccc2c3c(cnc2c1)-c1ccc(C(F)(F)F)cc1OC3c1ccc(OCCN2CC(CF)C2)cc1 (single isomer, unassigned; isomer 2) [Example 10, 5-(4-{2-[3-(Fluoromethyl)azetidin-1-yl]ethoxy}phenyl)-8-(trifluoromethyl)-5H-[1]benzopyrano[4,3-c]quinolin-2-ol, 4-methylbenzenesulfonic acid, Isomer 2] | – | 0.0106 µM | 0.00438 µM | −51% | −51% | −51% | 0.659 | 0.445 | 0.241 | – | –
3 | Oc1ccc2c3c(cnc2c1)-c1ccc(C(F)(F)F)cc1OC3c1ccc(OCCN2CC(CF)C2)cc1 (racemic) [Example 1, 5-(4-{2-[3-(Fluoromethyl)azetidin-1-yl]ethoxy}phenyl)-8-(trifluoromethyl)-5H-[1]benzopyrano[4,3-c]quinolin-2-ol] | no significant agonistic activity | – | – | – | – | – | – | – | – | 0.0321 ± 0.0068 µM | 0.00768 ± 0.0126 µM
